How the values were obtained:
[1] = test system: HUVECs; assay: Nitric oxide production in endothelial cells (DAF 2-DA fluorescence); format: cell-based, human; conditions: HUVECs incubated 24 hours
Experimental: c. HGF and compounds of the invention stimulate nitric oxide production in endothelial cells. HUVECs are incubated with either vehicle, HGF/SF, instant compounds, or SNAP for 24 hours, loaded with the nitric oxide-sensitive fluorescence indicator DAF 2-DA and imaged under a laser scanning confocal microscope.

[2] = test system: LX2 cells; assay: Antifibrotic activity in hepatic stellate cells; format: cell-based, human; conditions: serum starved (activated) LX2 cells
Description: a. Antifibrotic Activity in Hepatic Stellate Cells.

[3] = test system: MDCK cells; assay: Anti-apoptotic activity in cultured cell lines (adriamycin); format: cell-based; conditions: pretreatment; HUVEC and MDCK cell lines
Description: a. HGF/SF and instant compounds have significant anti-apoptotic activity in cultured cell lines.

Molecule | nitric oxide production (DAF 2-DA fluorescence) [1] | collagen I mRNA expression [2] | cell viability [3]
CC(=O)N[C@@H](C(=O)O)C(C)(C)SN=O (racemic) [SNAP, reference compound] | significant increase in fluorescence |  | 
HGF/SF: Scatter factor, also known as hepatocyte growth factor; pleiotropic growth factor, heparin-binding heterodimeric protein | significant increase in fluorescence | decrease in collagen I mRNA expression | significantly improves the cell viability

Source: US20130190376A1, “METHODS OF USE OF SMALL MOLECULE MODULATORS OF HEPATOCYTE GROWTH FACTOR (SCATTER FACTOR) ACTIVITY” (priority 2010, published 2013)
